{"source": "ChEMBL document CHEMBL5465560", "about": "“Selectivity Literature for EUbOPEN Chemogenomic Library” (2024)", "key": {"[1]": {"target": "Insulin-like growth factor 1 receptor (Homo sapiens, UniProt P08069)", "sequence (P08069 31-736 limits assumed)": "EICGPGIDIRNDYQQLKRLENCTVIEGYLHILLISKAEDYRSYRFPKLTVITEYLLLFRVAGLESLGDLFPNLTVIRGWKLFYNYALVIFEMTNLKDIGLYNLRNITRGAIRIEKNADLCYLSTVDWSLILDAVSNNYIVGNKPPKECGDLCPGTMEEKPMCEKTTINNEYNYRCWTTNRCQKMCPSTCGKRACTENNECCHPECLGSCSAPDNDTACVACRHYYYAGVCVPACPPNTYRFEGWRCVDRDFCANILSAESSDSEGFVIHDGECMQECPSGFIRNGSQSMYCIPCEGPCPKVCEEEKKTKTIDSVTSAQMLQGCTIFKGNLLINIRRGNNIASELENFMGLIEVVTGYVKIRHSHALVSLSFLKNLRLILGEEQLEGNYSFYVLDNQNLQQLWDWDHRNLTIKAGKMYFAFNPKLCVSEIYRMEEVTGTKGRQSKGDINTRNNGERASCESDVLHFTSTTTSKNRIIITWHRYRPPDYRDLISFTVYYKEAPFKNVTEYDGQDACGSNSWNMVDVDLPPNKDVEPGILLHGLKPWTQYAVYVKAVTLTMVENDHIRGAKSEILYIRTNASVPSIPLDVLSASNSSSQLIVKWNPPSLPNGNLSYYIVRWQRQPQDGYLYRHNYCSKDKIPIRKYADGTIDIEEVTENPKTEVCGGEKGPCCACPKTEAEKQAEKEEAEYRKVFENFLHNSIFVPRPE", "sequence (P08069 741-1367 limits assumed)": "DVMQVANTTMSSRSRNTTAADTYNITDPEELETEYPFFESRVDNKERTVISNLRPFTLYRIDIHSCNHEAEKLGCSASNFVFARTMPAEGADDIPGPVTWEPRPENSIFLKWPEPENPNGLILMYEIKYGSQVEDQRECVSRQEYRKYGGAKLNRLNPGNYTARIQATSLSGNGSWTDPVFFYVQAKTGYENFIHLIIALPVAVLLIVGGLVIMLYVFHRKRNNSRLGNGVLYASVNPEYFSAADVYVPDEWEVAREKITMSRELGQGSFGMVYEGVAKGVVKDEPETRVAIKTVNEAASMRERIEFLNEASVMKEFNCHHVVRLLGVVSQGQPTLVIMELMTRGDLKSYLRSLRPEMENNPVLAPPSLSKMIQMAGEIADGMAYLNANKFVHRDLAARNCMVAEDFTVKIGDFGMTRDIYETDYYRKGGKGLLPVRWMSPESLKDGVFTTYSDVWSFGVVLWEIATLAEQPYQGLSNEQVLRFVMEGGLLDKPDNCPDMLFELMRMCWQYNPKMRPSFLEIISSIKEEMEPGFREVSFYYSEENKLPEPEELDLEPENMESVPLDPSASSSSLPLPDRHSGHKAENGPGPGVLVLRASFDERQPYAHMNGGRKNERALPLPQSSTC", "conditions": "at 3 µM"}, "[2]": {"system": "Receptor-type tyrosine-protein kinase FLT3 (Homo sapiens), P36888 [UNDEFINED MUTATION]", "assay": "(§1) Selectivity interaction (KinomeScan (DiscoverX)) EUB0001079a FLT3", "conditions": "at 1 µM"}, "[3]": {"system": "T1, Receptor-type tyrosine-protein kinase FLT3 (Homo sapiens), P36888 [K663Q]", "T1 sequence (whole entry)": "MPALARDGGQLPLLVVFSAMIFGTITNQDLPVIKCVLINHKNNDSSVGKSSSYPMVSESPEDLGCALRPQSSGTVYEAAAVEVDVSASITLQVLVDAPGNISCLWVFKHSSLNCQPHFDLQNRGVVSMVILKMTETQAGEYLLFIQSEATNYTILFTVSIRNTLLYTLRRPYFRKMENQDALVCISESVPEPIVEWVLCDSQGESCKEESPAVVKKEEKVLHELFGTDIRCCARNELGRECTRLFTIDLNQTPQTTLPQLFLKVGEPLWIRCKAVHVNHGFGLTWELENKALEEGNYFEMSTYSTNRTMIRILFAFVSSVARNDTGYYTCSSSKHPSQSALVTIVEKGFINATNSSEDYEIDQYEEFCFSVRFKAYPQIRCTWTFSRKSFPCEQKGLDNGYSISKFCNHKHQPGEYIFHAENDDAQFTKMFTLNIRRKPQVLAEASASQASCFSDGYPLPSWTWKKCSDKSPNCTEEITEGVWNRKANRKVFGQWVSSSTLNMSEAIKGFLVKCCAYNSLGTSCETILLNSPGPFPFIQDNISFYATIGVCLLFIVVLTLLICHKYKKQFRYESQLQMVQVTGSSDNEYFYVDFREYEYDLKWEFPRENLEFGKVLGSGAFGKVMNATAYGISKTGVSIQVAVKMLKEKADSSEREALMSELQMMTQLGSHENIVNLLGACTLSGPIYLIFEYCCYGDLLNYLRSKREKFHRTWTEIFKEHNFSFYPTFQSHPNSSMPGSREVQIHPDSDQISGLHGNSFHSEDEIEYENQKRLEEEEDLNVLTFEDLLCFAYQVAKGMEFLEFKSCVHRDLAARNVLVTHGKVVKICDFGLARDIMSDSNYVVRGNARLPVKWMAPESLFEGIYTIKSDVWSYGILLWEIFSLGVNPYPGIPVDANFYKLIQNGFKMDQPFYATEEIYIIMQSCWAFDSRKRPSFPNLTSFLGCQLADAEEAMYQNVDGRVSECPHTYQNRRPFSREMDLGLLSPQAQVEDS", "assay": "as §1", "conditions": "at 1 µM"}, "[4]": {"system": "T2, Receptor-type tyrosine-protein kinase FLT3 (Homo sapiens), P36888 [D835Y]", "T2 sequence (whole entry)": "T1 sequence (whole entry) with Q663K, D835Y", "assay": "as §1", "conditions": "at 1 µM"}, "SRSF protein kinase 1": {"target": "SRSF protein kinase 1 (Homo sapiens, UniProt Q96SB4)", "sequence (Q96SB4 whole entry)": "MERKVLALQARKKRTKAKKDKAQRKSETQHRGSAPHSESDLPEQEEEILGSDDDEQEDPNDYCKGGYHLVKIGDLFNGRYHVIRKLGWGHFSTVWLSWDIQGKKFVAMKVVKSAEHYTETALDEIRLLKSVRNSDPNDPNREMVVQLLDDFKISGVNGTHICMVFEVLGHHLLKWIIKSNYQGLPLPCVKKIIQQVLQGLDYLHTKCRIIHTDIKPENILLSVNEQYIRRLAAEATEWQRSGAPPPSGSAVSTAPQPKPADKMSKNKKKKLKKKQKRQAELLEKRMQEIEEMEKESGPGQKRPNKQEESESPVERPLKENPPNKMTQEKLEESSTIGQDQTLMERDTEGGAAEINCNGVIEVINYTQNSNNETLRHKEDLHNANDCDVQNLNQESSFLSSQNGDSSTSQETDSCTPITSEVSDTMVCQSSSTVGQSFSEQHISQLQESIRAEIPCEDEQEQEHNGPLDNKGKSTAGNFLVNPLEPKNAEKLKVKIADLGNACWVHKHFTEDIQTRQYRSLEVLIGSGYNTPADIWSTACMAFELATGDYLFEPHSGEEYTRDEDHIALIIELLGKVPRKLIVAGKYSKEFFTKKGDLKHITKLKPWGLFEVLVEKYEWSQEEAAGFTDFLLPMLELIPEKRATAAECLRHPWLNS", "assay": "Selectivity interaction (KinomeScan (DiscoverX)) EUB0000655a SRPK1", "conditions": "at 10 µM"}}, "note": "Positions count from the first letter of the chain named.", "data": [{"compound": "CCc1cc(Nc2nccc(-c3c(-c4ccc(OC)c(C(=O)Nc5c(F)cccc5F)c4)nc4ccccn34)n2)c(OC)cc1N1CCC(N2CCN(S(C)(=O)=O)CC2)CC1", "values": [{"measurement": "% of inhibition", "setting": "[1]", "result": 100, "unit": "%"}]}, {"compound": "Nc1cnc(N2CCc3cc(S(=O)(=O)Nc4c(F)cc(Cl)cc4F)cc(N4CCCC4=O)c32)nc1", "note": "[TP-020n]", "values": [{"measurement": "% of control", "setting": "[2]", "result": 92, "unit": "%"}, {"measurement": "% of control", "setting": "[3]", "result": 97, "unit": "%"}, {"measurement": "% of control", "setting": "[4]", "result": 100, "unit": "%"}]}, {"compound": "CN(C)CCOc1ccc(-c2nc(-c3ccncc3)c(-c3ccc4c(c3)CC/C4=N\\O)[nH]2)cc1", "values": [{"measurement": "% of control", "setting": "SRSF protein kinase 1", "result": 86, "unit": "%"}]}]}
